Tests used:
N4TG1 = assay: Liposomal uptake by normal and tumor cells; assay type: cell-based, mouse; conditions: tumor cells N4TG1
Description: (§1) Thymidine uptake is a method of assessing cell viability of cultured cells, and decreased thymidine uptake occurs as a result of cytotoxicity caused by contact with toxic substances. , MRC-5 normal embryonic lung fibroblasts; , W1-38SV/40 transformed embryonic human lung fibroblasts; .quadrature..quadrature., SK-N-MC human glioblastoma cells and , N4TG1 mouse neuroblastoma cells.
(§2) Cells were treated with liposomes containing synthetic preparations of PI (left frames) or PC (right frames) containing palmitic acid in the sn-1 position and either [^14 C]linoleic acid in the sn-2 position (FIGS. 5 and 5a) or [^14 C]arachidonic acid in the sn-2 position (FIGS. 6 and 6a) or [^14 C]oleic acid in the sn-2 position (FIGS. 7 and 7a). The liposomes were comprised of the indicated phospholipids (PI or PC) and cholesterol in a molar ratio of 2:1.
(§3) The data in Table 5 was obtained concomitantly with the toxicity studies in FIGS. 5-7a.

MRC-5 = assay: Liposomal uptake by normal and tumor cells; assay type: cell-based; conditions: normal cells MRC-5
Description: as §1, §2, §3

[1] = tested on: N4TG1 neuroblastoma cells; assay: Thymidine uptake (cell viability) by N4TG1 neuroblastoma cells incubated with liposomes; assay type: cell-based, mouse
Description: Plant PI(S) is from the Sigma Chemical Company and plant PI(A) is from Avanti Polar Lipids, Inc. and ([^14 C]linoleoyl)PI is the synthetic PI.
FIGS. 3a and 3b show the effect of increasing the molar fraction of synthetic PI or animal PI in liposomes on (a) thymidine uptake (FIG. 3a) and myo-inositol uptake (FIG. 3b) by N4TG1 neuroblastoma cells, .circle. 100 μm PI, 200 μm PI, 300 μm PI. Cells were incubated with liposomes made up of the various combinations indicated (mol %) of ([^14 C]linoleoyl)PI and animal PI.
FIGS. 9a, b, c, and d show the effect of inhibitors on PI toxicity to tumor cells.
(§4) Lipids were dried and resuspended exactly as described previously in the Biochem. Biophys. Res. Commun. article. In the use of ([^14 C]linoleoyl)PI, ([^14 C]oleoyl)PI, or ([^14 C]arachidonoyl)PI the phospholipids were used in a 2:1 molar combination with cholesterol. Cholesterol was included in the liposomes in order to minimize the net transfer of cholesterol into or out of the cells. ([^3 H]myo-Inositol)PI was used as a tracer (1%) with bovine liver PI as the bulk phospholipid carrier for forming liposomes. [^3 H]Linoleic acid was used as a tracer (4%) in liposomes containing linoleic acid:PI (yeast or animal): cholesterol, 2:1. It was shown that it is not necessary to have cholesterol present to observe the cytotoxicity.
The N4TG1 mouse neuroblastoma cell line was obtained from Dr. Peter Chiang (Walter Reed Army Institute of Research) and cultured using Dulbecco's minimal essential medium (MEM: Grand Island Biological Co.) containing 10% fetal bovine serum. Cells were routinely started from frozen cultures every 6 weeks in order to assure that the cells used were from low passage cultures.
[methyl-^3 H]Thymidine (New England Nuclear) incorporation was carried out using 96-well plates (Costar). Thymidine incorporation was used as an assay for cell viability, since in the previous studies described in the Biochem. Biophys. Res. Commun. (1983) article, other methods of assessing cell viability, including microscopic evaluation in the presence of trypan blue, gave identical results. Fifty μl of cell suspension (4×10^5 cells/ml) were added to duplicate wells. Approximately 18 hours later 25 μl of the PI-containing liposomes were added to give a final concentration of phospholipid of 200 μM (approximately, 14 nmol/2-3×10^4 cells). At various intervals after PI addition [^3 H]thymidine, 1 μCi/well was added and incubated with the cells for 3 hours. Cells were collected on glass fiber filter mats by a mechanical cell harvester (Skatron, Inc.) using a combination of scraping and fluid turbulence (saline). Filters were dried and the material was solubilized by incubation overnight with NCS tissue solubilizer and counted in the presence of Spectrafluor (Amersham).
In FIGS. 1 and 2 the curves were quite reproducible and representative experiments are shown. Because of fluctuations (<5%) in control values, the data were "normalized" by comparison with daily controls and expressed as "percentage of control in absence of PI." Typical values for uptake of [^3 H]thymidine by controls are shown in the inserts in FIGS. 1 and 2.

HT-144 = assay: Liposomal uptake by normal and tumor cells; assay type: cell-based, human; conditions: tumor cells HT-144
Description: as §2, §3

WI-38/SV-40 = assay: Liposomal uptake by normal and tumor cells; assay type: cell-based, human
Description: as §1, §2, §3

SK-N-MC = assay: Liposomal uptake by normal and tumor cells; assay type: cell-based, human; conditions: tumor cells SK-N-MC
Description: as §1, §2, §3

[2] = tested on: N4TG1 neuroblastoma cells; assay: Fate of liposomal PI after incubation with N4TG1 neuroblastoma cells; assay type: in vitro ADME, mouse
Excerpt: as §4, with “It was shown that it is not necessary to have cholesterol present to observe the cytotoxicity.” left out
In order to extract lipids, methanol and chloroform were added to cell homogenates to obtain a single phase of CHCl3 :CH3 OH:H2 O (1:2:1 8, v/v) containing 0.1M HCl, according to Bligh and Dyer in Can. […] The lipid compositions of the cell extracts were determined by thin layer chromatography on silica gel precoated sheets (E. M. Reagents; E. Merck, FRG) using the following solvent systems: (a) chloroform:methanol: acetic acid:water, 25:15:4:2 (v/v) (used for phospholipid separation): (b) 1-propanol:4.3M ammonia containing 10 mM EDTA, 65:35 (v/v) (used for PIP and PIP2 separations); and (c) chloroform:acetone, 1:1 (v/v) (used for DG and fatty acid separations). […]

[3] = tested on: lung small cell carcinoma cultures (NCI-H128); assay: Toxicity to lung small cell carcinoma cultures, based on thymidine uptake, with inhibitors; set-up: species or system human; conditions: FIGS. 9c and 9d; for blocking of plant PI toxicity / competition: with plant PI
Excerpt: FIGS. 9c and 9d show the effects of inhibitors of phospholipase A2 (quinacrine) or prostaglandin synthesis (eicosanotetraynoic acid) or leukotriene synthesis ([…]) on cytotoxicity induced by liposomes containing plant PI/cholesterol/([^14 C]linoleoyl)PI (2/1/0.01). The NCI-H128 cells are a small cell lung carcinoma cultured cell line
Several specific inhibitors were used with lung small cell carcinoma cultures. […] In humans, this type of lung cancer is fatal very soon after detection.

[4] = tested on: N4TG1 neuroblastoma cells; assay: Cellular uptake of linoleic acid from liposomes (tracer 3H-linoleic acid); assay type: cell-based, mouse
Excerpt: as §4
Cellular uptake of linoleic acid was calculated based on uptake of tracer ^3 H-linoleic acid. In Table 1 intracellularly generated free fatty acids occurred at a concentration of 2.2 nmol/8×10^5 cells. […] In the case of liposomes containing yeast PI as the phospholipid, the uptake of linoleic acid was 2.9 nmol/8×10^5 cells and the thymidine incorporation had decreased to 53% of control values. Although toxicity occurred at similar concentrations of fatty acids as were generated intracellularly it must be kept in mind that in the experiment in Table 2 there were also extracellular free fatty acids which could exert effects on the outer surface of the cells.

[5] = tested on: N4TG1 neuroblastoma cells; assay: Effect on cells by linoleic acid in liposomes made of non-cytotoxic phospholipids (thymidine uptake); assay type: cell-based, mouse
Excerpt: as §4
The N4TG1 mouse neuroblastoma cell line was obtained from Dr. Peter Chiang (Walter Reed Army Institute of Research) and cultured using Dulbecco's minimal essential medium (MEM: Grand Island Biological Co.) containing 10% fetal bovine serum. […]
[methyl-^3 H]Thymidine (New England Nuclear) incorporation was carried out using 96-well plates (Costar). […] Filters were dried and the material was solubilized by incubation overnight with NCS tissue solubilizer and counted in the presence of Spectrafluor (Amersham). […]
Cellular uptake of linoleic acid was calculated based on uptake of tracer ^3 H-linoleic acid. […]

Structure (SMILES)	Liposomal uptake (N4TG1)	Liposomal uptake (MRC-5)	cytotoxicity [1]	Liposomal uptake (HT-144)	Liposomal uptake (WI-38/SV-40)	Liposomal uptake (SK-N-MC)	blocking of plant PI toxicity / competition [3]	also measured
CCCCCCCC/C=C\CCCCCCC[14C](=O)O[C@H](COC(=O)CCCCCCCCCCCCCCCCC)COP(=O)(O)O[C@@H]1[C@H](O)[C@H](O)[C@@H](O)[C@H](O)[C@H]1O [([^14 C]oleoyl)PI, reference compound]	0.28 nMoles of phospholipid/1 × 10^5 cells	0.13 nMoles of phospholipid/1 × 10^5 cells	lacked cytotoxicity	0.28 nMoles of phospholipid/1 × 10^5 cells	0.21 nMoles of phospholipid/1 × 10^5 cells	0.28 nMoles of phospholipid/1 × 10^5 cells	–	–
CCCCC/C=C\C/C=C\C/C=C\C/C=C\CCC[14C](=O)O[C@H](COC(=O)CCCCCCCCCCCCCCCCC)COP(=O)(O)O[C@@H]1[C@H](O)[C@H](O)[C@@H](O)[C@H](O)[C@H]1O [([^14 C]arachidonoyl)PI]	0.49 nMoles of phospholipid/1 × 10^5 cells	0.09 nMoles of phospholipid/1 × 10^5 cells	considerable cytotoxicity	0.55 nMoles of phospholipid/1 × 10^5 cells	0.33 nMoles of phospholipid/1 × 10^5 cells	0.39 nMoles of phospholipid/1 × 10^5 cells	–	Phosphatidylcholine [2]: Not Detected
CCCCCC#CCC#CCC#CCC#CCCCC(=O)O [eicosanotetraynoic acid]	–	–	–	–	–	–	relatively little promise of blocking the toxicity of plant PI	–
COc1ccc2c(c1)c(CC(=O)O)c(C)n2C(=O)c1ccc(Cl)cc1 [indomethecin, indomethacin]	–	–	–	–	–	–	relatively little promise of blocking the toxicity of plant PI	–
CCN(CC)CCCC(C)Nc1c2ccc(Cl)cc2nc2ccc(OC)cc12 (stereo not drawn) [Quinacrine, quinacrine, reference compound]	–	–	–	–	–	–	No competition was observed	toxicity [3]: extremely toxic; effect of quinacrine on cytotoxicity of plant PI ([1]; in conjunction with plant PI, FIG. 9b): reversal of cytotoxicity; cytotoxicity of quinacrine alone ([1]; tumor or normal cells, FIG. 9a): somewhat cytotoxic
CCCCC/C=C\C/C=C\CCCCCCCC(=O)O [Linoleic acid, linoleic acid]	–	–	–	–	–	–	–	uptake of linoleic acid ([4]; 50 μM, Animal Phosphatidylinositol liposomes): 2.55 nmol/8 × 10^5 cells; uptake of linoleic acid ([4]; 50 μM, Yeast Phosphatidylinositol liposomes): 1.8 nmol/8 × 10^5 cells; uptake of linoleic acid ([4]; 100 μM, Animal Phosphatidylinositol liposomes): 3.03 nmol/8 × 10^5 cells; uptake of linoleic acid ([4]; 100 μM, Yeast Phosphatidylinositol liposomes): 2.9 nmol/8 × 10^5 cells; uptake of linoleic acid ([4]; 200 μM, Animal Phosphatidylinositol liposomes): 10.4 nmol/8 × 10^5 cells; uptake of linoleic acid ([4]; 200 μM, Yeast Phosphatidylinositol liposomes): 14.8 nmol/8 × 10^5 cells; decrease in thymidine incorporation compared with controls ([5]; liposomes with animal PI, uptake 2.55 nmol/8×10^5 cells): 63%; thymidine incorporation ([5]; liposomes with yeast PI, uptake 2.9 nmol/8×10^5 cells): 53 % of control values
